Broadly, the pKa is the pH at which an ionisable group is half protonated.

The values that follow come from patent publication US20230358677A1, “Reversible Excited-State Photoacids and Photobases as Dynamic Fluorescence Sensors of Protonic Species” (California Institute of Technology, priority 2022, published 2023).

Entries after “also recorded” stand apart in the source; their conditions may differ. Like-named read-outs stand apart in the source and are kept apart here.

A short description of data set [1]: Stability of dye fluorescence near an operating gas diffusion electrode.
The nature of data set [2]: Acid-base titration of aqueous photoacid with absorption and steady-state photoluminescence detection (Henderson-Hasselbalch / Stern-Volmer fits, OH− as quencher). To be noted: for bimolecular rate constant k+q,ss,OH−: steady-state data, forward direction of Reaction 1 with B=OH−(aq); for predicted pK*a pseudo (Equation 5): from bimolecular rate constant and excited-state lifetime. An excerpt: FIGS. 2A through 2C illustrate acid-base titration of an aqueous solution of NS—NH2 photoacid with absorption and photoluminescence detection in accordance with an embodiment.
where aOH− is the activity of OH^−(aq), K*b pseudo is an erroneous observed equilibrium constant for base dissociation and KSV,OH− is the Stern-Volmer quenching constant, which is strictly dimensionless but reported here in units of M^−1 to be consistent with its typical usage. Unlike the Henderson-Hasselbalch equation, the Stern-Volmer equation is also applicable to non-equilibrium processes.
and KSV,OH−=k+q,OH−τo,PAH*, where τ is the excited-state lifetime (s) of NS—NH2* in the absence (τo,PAH*) or presence (τPAH*) of OH^− quencher and k+q,OH− is the bimolecular rate constant (M^−1 s^−1) for quenching of NS—NH2* by OH^− (forward direction of Reaction 1 with B=OH^−(aq)).
Several embodiments use the steady-state ultraviolet-visible electronic absorption and photoluminescence spectroscopy for characterization. Equal amounts of aromatic amine photoacids are portioned into five separate 100 mL volumetric flasks. For the non-proton-accepting quencher experiments, the five flasks are filled to the volumetric marker with aqueous solutions of 1 M HCl, 1 M KOH, 2 M KOH, 3 M KOH, and 4 M KOH. The aqueous 1 M KOH solution is titrated with the aqueous 1 M HCl solution to reach the desired pH values from 14 to 6, and the H^+ activities are measured using a pH meter (pH/Ion 510). […] Electronic absorption spectra and photoluminescence spectra are acquired using absorbance and fluorescence spectrometer(s), using a square-bottom quartz cuvette (1 cm path length) at room temperature. Electronic absorption spectra are baselined on a spectrum of deionized water and were corrected for scattering of light. Photoluminescence spectra are recorded by exciting with 310 nm light, slit widths for the excitation and emission monochromators were set to 5 nm, and the PMT detector voltage is set to 600 V. Photoluminescence spectra are corrected for changes in solution refractive index, inner filter effects and the wavelength-dependent correction factor of the fluorimeter. For experiments that use non-OH^− proton-accepting quenchers, equal amounts of the quencher are added to the dry volumetric flask intended to form the acidic and basic aqueous photoacid solutions, to prevent changes in total quencher concentration during the titration, and titrations are performed similarly to those in the absence of added proton-accepting quenchers. Although the total quencher concentration is kept constant throughout the titration, the activity of the deprotonated quencher species varied as a function of solution pH according to Equation 3. Ionic strength is matched at the most alkaline pH values; however, it is experimentally difficult to maintain the same ionic strength throughout the titration. Normalized photoluminescence intensities as a function of solution pH are obtained by dividing the corrected photoluminescence intensities at the wavelength of maximum photoluminescence to the maximum corrected photoluminescence intensity at the same wavelength.

The nature of data set [3]: Stern-Volmer analysis of quenching of HPhenDS by proton acceptors. As to conditions: quenching of aqueous HPhenDS, constant ionic strength. It is filed as physicochemical. The protocol: ESPT availability and ESPT to water curves are calculated from steady-state absorption and photoluminescence data for 15 μM HPhenDS across the pH window indicated at constant ionic strength (except for pH values below 0). Concentrations of all buffers were simulated to be 1 M total salt added. Ability to sense is predicted by estimating total concentration at a given pH value based on the pKa value of the buffer and fit to a Henderson-Hasselbalch-type equation. The resultant concentration is then multiplied by the ESPT availability of HPhenDS at each pH value.
FIGS. 21A and 21B illustrate Stern-Volmer analysis for quenching constant Ksv in accordance with an embodiment.

A short description of data set [4]: Acid-base titrations of NS—NH2 in the presence of proton-accepting quenchers (modified Stern-Volmer, Equation 7). As to conditions: for pKa,BH+ (Equation 7), value after the slash: equals titration-curve values of b153; for k+q,corr: corrected rate constant, ESPT from NS—NH2* to the proton acceptor; for k+q: direct excited-state proton transfer from NS—NH2* to the proton acceptor; for KSV,quencher (Equation 7) / KSV,quencher (traditional linearized Stern-Volmer): quenching of NS—NH2*. An excerpt:
Assuming that photoluminescence quenching occurs by ESPT from NS—NH2* to OH^−(aq), the data support that when aOH− is small (i.e. at pH less than about 12), ESPT can be quite slow compared to the excited-state lifetime of NS—NH2*, due to mass action (FIG. 2B). The non-unity quantum yield for ESPT in weakly alkaline aqueous solutions afforded us an opportunity to evaluate a series of aqueous proton-accepting quenchers (glycine (Gly(aq)), proline (Pro(aq)), and trifluoroethanol (TFE(aq))) for their ability to undergo ESPT with NS—NH2*. In order to clearly observe ESPT to a species other than OH^−(aq), added proton-accepting quenchers had to be more basic (ΔG^o<0), or slightly more acidic (ΔG^o>0), than NS—NH2*, and less basic than OH^−(aq). […] As pH values approach and pass the pKa of the proton-accepting quencher, the rate of ESPT slows from a decrease in the concentration of proton-accepting quencher due to its protonation. This is supported by observations from analogous experiments performed using different concentrations of quencher. Best fits of measured photoluminescence spectroscopy data to a modified Stern-Volmer equation for a two-quencher system, including both OH^−(aq) and proton-accepting quencher, provided bimolecular rate constants for deprotonation of the photoacid by each quencher,
where KSV,OH−=K*^−1b and KSV,quencher=k+q,quencherτo,PAH* are the dynamic quenching constants for excited-state proton transfer to OH^−(aq) and proton-accepting quencher, respectively, k+q,quencher is the bimolecular rate constant (M^−1 s^−1) for ESPT quenching by the proton-accepting quencher, and the sum of the activities of B and BH^+ is approximated as the total concentration of the proton-accepting quencher. While the pKa of the proton-accepting quencher is an adjustable parameter during best fitting, extracted pKa values are close to pKa values obtained from the acid-base titration curves of the proton-accepting quenchers. Changing the proton-accepting quencher to one with a smaller pKa value results in a slower non-diffusion-limited rate constant for ESPT with NS—NH2*. The observation of ESPT directly from NS—NH2* to each of two different amino acids, Gly and Pro, is notable, and may have important implications for biological systems where direct protonation of proteins can induce cellular responses.
Table 2 lists driving-force-dependent rate constants for direct excited-state proton transfer from NS—NH2* to various proton-accepting quenchers.
Several embodiments use the steady-state ultraviolet-visible electronic absorption and photoluminescence spectroscopy for characterization. Equal amounts of aromatic amine photoacids are portioned into five separate 100 mL volumetric flasks. For the non-proton-accepting quencher experiments, the five flasks are filled to the volumetric marker with aqueous solutions of 1 M HCl, 1 M KOH, 2 M KOH, 3 M KOH, and 4 M KOH. The aqueous 1 M KOH solution is titrated with the aqueous 1 M HCl solution to reach the desired pH values from 14 to 6, and the H^+ activities are measured using a pH meter (pH/Ion 510). […] Electronic absorption spectra and photoluminescence spectra are acquired using absorbance and fluorescence spectrometer(s), using a square-bottom quartz cuvette (1 cm path length) at room temperature. Electronic absorption spectra are baselined on a spectrum of deionized water and were corrected for scattering of light. Photoluminescence spectra are recorded by exciting with 310 nm light, slit widths for the excitation and emission monochromators were set to 5 nm, and the PMT detector voltage is set to 600 V. Photoluminescence spectra are corrected for changes in solution refractive index, inner filter effects and the wavelength-dependent correction factor of the fluorimeter.

For data set [5] the following is noted: 1 M aqueous solution titrated with 4 M KOH.
The conditions of data set [6]: proton acceptor, aqueous; cited from earlier work.
The conditions of data set [7]: cited from earlier work.
Setting [8] is: conjugate acid of proton acceptor.

In the case of `Nc1cc(S(=O)(=O)[O-])c2ccc3c(S(=O)(=O)[O-])cc(S(=O)(=O)[O-])c4ccc1c2c43.[Na+].[Na+].[Na+]` [APTS, 8-aminopyrene-1,3,6-trisulfonic acid trisodium salt], the “colour of stock solution after exposure” value in data set [1] (10 mM stock solution exposed to −100 mA/cm^2 for 30 minutes) is given as “from bright green to brown”. The “photoluminescence intensity during GDE operation” value in data set [1] (high current densities (magnitudes >80 mA/cm^2), trisodium salt) was “degrades and slowly loses its fluorescence; also recorded: decrease in photoluminescence intensity”. In addition, in data set [1] (increasing concentration of dissolved inorganic carbon), the “steady-state photoluminescence spectrum versus dissolved inorganic carbon” value is “minimal change in intensity”. For the same compound, the “calibration curve after degradation versus fresh solutions” value in data set [1] (stock solution exposed to −100 mA/cm^2 for 5 minutes) is “nearly identical”. Besides, the “degradation, pH 7.1 versus pH 3 solution” value in data set [1] (with and without light) is on record as “degradation effect is more pronounced for the pH 3 solution”. In data set [2], the pKa is greater than 14 and the “bimolecular rate constant k+q,ss,OH−” value is given as “(2.992±0.004)×10^9 M^−1 s^−1”. Besides, in data set [2] (steady-state photoluminescence titration, global fit of two trials), the “pK*a pseudo (Henderson-Hasselbalch fit)” value stood at 12.83±0.01.

For the compound `CC(=O)O` [Acetate], the KSV entry in data set [3] is “about 0.1548 M^−1”.

Take `O=C(O)O` [Bicarbonate]: the KSV result in data set [3] is “about 0.6051 M^−1”.

On to `O=C([O-])[O-].[Na+].[Na+]` [Carbonate], for which the KSV entry in data set [3] is listed as “about 1.02 M^−1”.

On to `NCCNc1cccc2c(S(=O)(=O)[O-])cccc12.[Na+]` [EDANS, 5-((2-aminoethyl)amino)naphthalene-1-sulfonic acid sodium salt], for which the pKa in data set [2] (aqueous solution, pKa of the aliphatic primary amine, multi-quencher Stern-Volmer fit) came out at 10.06 ± 0.02. In data set [2] (excited-state deprotonation by the aliphatic primary amine), the unimolecular rate constant entry was “(0.95±0.01)×10^8 s^−1”. In data set [2] (excited-state deprotonation by the aliphatic primary amine (intramolecular)), the “KSV,NH2” value is 1.20 ± 0.02 M⁻¹. In data set [2], the “predicted pK*a pseudo (Equation 5)” value is reported as 12.53±0.06 and the “bimolecular rate constant k+q,ss,OH−” value is “(23±1)×10^8 M^−1 s^−1”. Besides, in data set [2] (steady-state photoluminescence, non-linear Stern-Volmer fit, OH−(aq) quencher), the “KSV,ss,OH−” value amounted to 30 ± 1 M⁻¹.

As for `O=CO` [Formate], the KSV entry in data set [3] is on record as “about 0.4623 M^−1”.

With `NCC(=O)O` [Glycine], in data set [4] (1 M total quencher), the “bimolecular rate constant, deprotonation of NS—NH2* by the quencher” value (from here on “bimolecular rate constant, deprotonation”) is reported as “(0.39±0.02)×10^8 M^−1 s^−1”; the “KSV,quencher (Equation 7)” value turned out to be 0.18 ± 0.01 M⁻¹; the “KSV,quencher (traditional linearized Stern-Volmer)” value is 0.19 ± 0.01 M⁻¹. In addition, in data set [4] (2 M total glycine), the “bimolecular rate constant, deprotonation” value is given as “(0.90±0.04)×10^8 M^−1 s^−1” and the “KSV,quencher (Equation 7)” value came out at 0.20 ± 0.01 M⁻¹. In addition, in data set [4] (setting [8]), the “pKa,BH+ (Equation 7), value before the slash” value is reported as 9.7 and the “pKa,BH+ (Equation 7), value after the slash” value is reported as 9.9. Moreover, in data set [4], the “k+q,corr” value is recorded as 1.44 ± 0.07 10^8 M^−1 s^−1 and the “k+q” value is 0.39 ± 0.02 10^8 M^−1 s^−1. The “pKa from acid-base titration curve” value in data set [5] is 9.9. The “Diffusion Coefficient” value in data set [6] is recorded as 10.60 10^−6 cm^2/s.

On to `O=S(=O)([O-])c1cccc2cccc(Nc3ccccc3)c12.[Na+]` [sodium 8-anilinonaphthalene-1-sulfonate, 8-anilinonaphthalene-1-sulfonic acid sodium salt], for which, in data set [2], the “predicted pK*a pseudo (Equation 5)” value was 13.92±0.04 and the “bimolecular rate constant k+q,ss,OH−” value is on record as “(48±4)×10^8 M^−1 s^−1”. Also, the “KSV,ss,OH− (linearized Stern-Volmer)” value in data set [2] (steady-state photoluminescence, traditional linearized Stern-Volmer fit, OH−(aq) quencher) was found to be 1.2 ± 0.1 M⁻¹.

For Hydroxide, the “pKa,BH+ (Equation 7), value before the slash” value in data set [4] (setting [8]) is reported as 14/—. Also, in data set [4], the “k+q,corr” value is reported as 100 ± 3 10^8 M^−1 s^−1 and the “k+q” value is listed as 100 ± 3 10^8 M^−1 s^−1. In data set [6], the “Diffusion Coefficient” value is 52.70 10^−6 cm^2/s.

On to Phosphate, for which, in data set [4], the “pKa,BH+ (Equation 7), value before the slash” value is recorded as 11.4/—; the “k+q,corr” value was 22.6 ± 3.8 10^8 M^−1 s^−1; the “k+q” value is on record as 5.4 ± 0.9 10^8 M^−1 s^−1. Further, in data set [4] (0.17 M total phosphate), the “bimolecular rate constant, deprotonation” value was “(11±2)×10^8 M^−1 s^−1”; the “KSV,quencher (Equation 7)” value came out at 2.2 ± 0.3 M⁻¹; the “KSV,quencher (traditional linearized Stern-Volmer)” value was 3.4 ± 0.1 M⁻¹. In data set [6], the “Diffusion Coefficient” value was 8.79 10^−6 cm^2/s.

In the case of Trifluoroethanol, the “pKa, literature value” in data set [7] was 12.4. In data set [4] (1 M total quencher), the “bimolecular rate constant, deprotonation” value is reported as “(11±2)×10^8 M^−1 s^−1”; the “KSV,quencher (Equation 7)” value turned out to be 5 ± 1 M⁻¹; the “KSV,quencher (traditional linearized Stern-Volmer)” value worked out at 6.2 ± 0.1 M⁻¹. Moreover, in data set [4] (setting [8]), the “pKa,BH+ (Equation 7), value before the slash” value is listed as 12.4 and the “pKa,BH+ (Equation 7), value after the slash” value came to 12.6. In data set [4], the “k+q,corr” value is on record as 58.7 ± 11.5 10^8 M^−1 s^−1 and the “k+q” value is on record as 11.2 ± 2.2 10^8 M^−1 s^−1. Moreover, the “pKa from acid-base titration curve” value in data set [5] is 12.6. Moreover, the “Diffusion Coefficient” value in data set [6] is given as 6.00 10^−6 cm^2/s.
